Molecules are shown by their SMILES.

We go through 1 molecule from US12565687B2, “Glucose in solid form and process for manufacturing glucose in solid form” (CARGILL, INCORPORATED, priority 2021, dated 2026).

A short description of the data set: Dissolution speed test in distilled water. The conditions noted are these: 1.5 g solid, particle sizes 425-600 μm, stirred in distilled water at ambient temperature. Format: physicochemical. As to the method:
Dissolution speed tests of the produced semi-crystalline particles were performed by comparison with the dissolution speed of pure crystalline glucose i.e. glucose monohydrate. Two comparative runs were carried out by using an initial mass of 1.5 g of solid inventive semi-crystalline glucose particles vs. crystalline glucose monohydrate, both having particle sizes in the range of 425-600 μm. The solid was stirred in a cylindrical vessel with distilled water at ambient temperature. In both the runs the solid disappearance was detected after 25 s, showing an equal dissolution speed of the produced semi-crystalline glucose in comparison to the crystalline glucose monohydrate.

For `O.O=C[C@H](O)[C@@H](O)[C@H](O)[C@H](O)CO` [crystalline glucose monohydrate, glucose monohydrate], the “time until solid disappearance was detected (dissolution speed)” value is given as 25 s.
